Measurements as given in patent US20070060548A1, “Modulation of Epac, phospholipase Cepsilon, and phospholipase D to treat pain” (The Regents of the University of California, priority 2005, published 2007).
Several values for one entry are separate records, joined by “and”; a condition that tells them apart may be missing. Identical values can stand only once. Entries after “also recorded” stand apart in the source; their conditions may differ. Like-named read-outs stand apart in the source and are kept apart here.

Legend:
[1] = test system: PKCε translocation in cultured DRG neurons; test: PKCε translocation to the plasma membrane in cultured DRG neurons (immunocytochemistry, 50 cells per culture counted); format: cell-based, rat; details: for PKCε translocating cells after inhibitor pretreatment and CPTOMe stimulation: 15 min pretreatment (U73122/U73343 10 μM, 1-/2-butanol 50 mM), then CPTOMe 10 μM 90 s
Method: Cultures of dissociated dorsal root ganglia were prepared from male Sprague-Dawley rats (200-300 g, Charles River, Hollister, Calif., USA), adapting a previously described protocol (Khasar et al., 1999b). Rats were anesthetized with an overdose of Nembutal (50 mg per animal, s.c.). L1-L6 DRGs were removed, desheathed, pooled, incubated with collagenase (final concentration (f.c.) 0.125%, 1 h, 37° C.) followed by a trypsin digest (f.c. 0.25%, 7 min, 37° C.). Cells were separated by trituration with a fire polished Pasteur pipette. Axon stumps and dead cells were removed by straining (40 μm mesh), followed by centrifugation (3 min, 500 g). Cells were resuspended in 12 ml Neurobasal A/B27-media and plated 0.5 ml (=0.5 DRG equivalents) per culture onto polyornithine/laminin precoated glass cover slips (12 mm diameter) and incubated over night in 24-well plates at 37° C. in 5% CO2. Variability between batches of NeurobasalA media and its B27 supplement resulting in varying translocation of PKCε after stimulation was counteracted by the addition of up to […] ethanol (according to technical support of Invitrogen, less than 2.5% of the ethanol concentration already in the medium).
After a 15-20 h incubation, to allow cells to adhere to coverslips, the cells were stimulated. To ensure homogeneous dispersion of the stimulants, 250 μl of the 500 μl medium was removed, mixed thoroughly with the respective activator/inhibitor and added back to the same culture. […] Activators were added for the indicated time in concentrations based on literature reports. For all agonists time courses were established (some data not shown). Negative controls (unstimulated cells) were treated alike only without the addition of any pharmaceutical reagent. While the physiological stimulus epinephrine was used for the in vivo experiments, the β-AR agonist isoproterenol was used in vitro for identification of the β-AR subtype. After treatment the cells were washed once with phosphate buffered saline (PBS) and fixed with para-formaldehyde (PFA) (4%, 10 min, room temperature (RT)).
PFA-fixed cells were permeabilized with 0.1% Triton X-100 (10 min, RT), followed by three washes with 0.1% bovine serum albumin (BSA)/PBS (5 min, RT). After blockage of unspecific binding sites (5% BSA/10% normal goat serum/PBS, 1 h, RT) the cultures were probed with the respective primary antibody in 1% BSA/PBS (over night, 4° C.), washed three times (1% BSA/PBS, 5 min, RT) and incubated with the secondary fluorophore-coupled antiserum (final concentration (f.c.) 1:200, 1 h, RT). After three final washes (PBS, 5 min, RT), the cultures were mounted with Vectashield onto microscope slides and sealed with nail polish.
Cells were evaluated with a Nikon Microphot FXA microscope, using a 50× oil objective. 50 randomly selected cells per culture were evaluated. Data are plotted as mean percentage of translocating cells per evaluated culture±standard error of means (SEM) based on the number of evaluated cultures. All counting was done in blind fashion by the same observer. All treatments have been repeated with DRG-neurons from different rats, on at least 2 separate days. Confocal images were taken with a 100× oil immersion objective using a Zeiss Axiovert 100 microscope (Carl Zeiss Inc.) attached to a MRC 1000 confocal microscope (Bio-Rad). Epifluorescent images were taken with a 63× oil immersion objective using a Zeiss Axiovert 100 microscope.

Sprague-Dawley rats = test: Mechanical nociceptive threshold, Randall-Selitto paw pressure test after intradermal injection; format: in vivo, rat; details: for change of baseline mechanical sensitivity (paw-withdrawal threshold): inhibitor alone, without stimulation (U73122/U73343 2.5 μl 1 μg/μl, 1-/2-butanol 2.5 μl); for CPTOMe-induced hyperalgesia after inhibitor preinjection: inhibitor preinjected 30 min before CPTOMe, positive = hyperalgesia; for effect on epinephrine-induced mechanical hyperalgesia: preinjection 30 min before epinephrine (also stated for CPTOMe); for reduction of paw-withdrawal threshold: agent alone, intradermal (epinephrine 0.1 μg, CPTOMe 6.3 μg in 2.5 μl), measured 30 min after injection
Method: Behavioral experiments were performed on male Sprague-Dawley rats (200-300 g, Charles River, Hollister, Calif., USA). Animals were housed in a controlled environment in the Animal Care Facility of the University of California, San Francisco, under a 12 h light/dark cycle. Food and water were available ad libitum. Care and use of animals conformed to NIH guidelines. The UCSF Committee on Animal Research approved experimental protocols. All efforts were made to minimize the number of animals used. The nociceptive flexion reflex was quantified using the Randall-Selitto paw pressure device (Analgesymeter®, Stoetling), which applies a linearly increasing mechanical force to the dorsum of the rat's hind paw. The nociceptive mechanical threshold was defined as the force in grams at which the rat withdrew its paw. The protocols for this procedure have been previously described (Taiwo and Levine, 1989; Dina et al., 2003). Baseline paw-withdrawal threshold was defined as the mean of six readings before test agents were injected. Each paw was treated as an independent measure and each experiment was performed on a separate group of rats. Each group of rats was treated with only one agonist and/or antagonist injected peripherally by the intradermal route. Measurement of nociceptive threshold was taken 30 min after the administration of the hyperalgesic mediator. All behavioral testing was done between 10.00 and 16.00 h. The blocking agents were injected as described previously ([…] et al., 1995; […] et al., 1999a). […] […] et al., 1999a).

[2] = 15 min pretreatment (ICI 118,551 50 μM, D-609 30 μM, U73122/U73343 10 μM, 1-/2-butanol 50 mM, BIM 100 nM), then isoproterenol 1 μM 30 s
[3] = activator alone, 30 s stimulation (isoproterenol 1 μM, cholera toxin 1 μg/ml, forskolin 5 μM, CPTOMe 10 μM), mean±SEM

| Compound | PKCε translocating cells after inhibitor pretreatment and isoproterenol stimulation [1, 2] | PKCε translocating cells after inhibitor pretreatment and CPTOMe stimulation [1] [%] | change of baseline mechanical sensitivity (paw-withdrawal threshold) (Sprague-Dawley rats) | CPTOMe-induced hyperalgesia after inhibitor preinjection (Sprague-Dawley rats) | other results |
| --- | --- | --- | --- | --- | --- |
| CCCCO [1-butanol] | 5.5±1.1% | 8.7±1.5 | −0.0%±1.8% | −0.5%±1.8% | effect on epinephrine-induced mechanical hyperalgesia (Sprague-Dawley rats): inhibits completely |
| CCC(C)O (stereo not shown) [2-butanol] | 16.0±2.4% | 21.8±2.7 | −8%±1.7% | 33.4±1.7% | – |
| CN(C)CCCn1cc(C2=C(c3c[nH]c4ccccc34)C(=O)NC2=O)c2ccccc21 [BIM, bisindolylmaleimide I] | – | – | – | – | PKCε translocating cells after inhibitor pretreatment and isoproterenol stimulation [1]: 19.8±1.3% |
| Cc1ncc2ccccc2c1C#N [CMIQ, 4-cyano-3-methylisoquinoline] | – | – | – | – | effect on isoproterenol-induced PKCε translocation ([1]; 15 min preincubation, up to 1000-fold IC50 (0.03-30 μM), then isoproterenol 1 μM 30 s): still translocated to the plasma membrane, as in control conditions; effect on mechanical paw-withdrawal threshold (Sprague-Dawley rats; CMIQ alone 2.5 μg/2.5 μl intradermally): did not change; effect on PKA catalytic subunit-induced hyperalgesia (Sprague-Dawley rats; CMIQ preinjected 15 min before PKAcs): completely abrogated; also recorded: completely blocked |
| CO[C@@H]1[C@@H]2OP(=O)(O)OC[C@H]2O[C@H]1n1c(Sc2ccc(Cl)cc2)nc2c(N)ncnc21 [CPTOMe, 8-CPT-2′-O-Me-cAMP] | – | – | – | – | PKCε translocating cells [1]: 20.3±2.6% and 23.5±3.7%; time of maximal PKCε translocation ([1]; activator alone, time course): 90 s; CPTOMe-induced hyperalgesia (Sprague-Dawley rats; CPTOMe alone, comparator of the inhibitor experiment): 31.7%±0.8%; reduction of paw-withdrawal threshold (Sprague-Dawley rats): 34.6±1.6% |
| S=C([S-])OC1CC2CC1C1CCCC21.[K+] [D-609] | 20.8±2.9% | – | – | – | – |
| Cc1ccc(OCC(O)C(C)NC(C)C)c2c1CCC2 (stereo not shown) [ICI 118,551] | 3.0%±1.1% | – | – | – | – |
| COc1ccc2c(c1)CC[C@@H]1[C@@H]2CC[C@]2(C)[C@@H](NCCCCCCN3C(=O)C=CC3=O)CC[C@@H]12 [U73122] | 0.3±0.3% | 2.0±0.9 | −4.4%±1.3% | −2.5%±2.0% | effect on epinephrine-induced mechanical hyperalgesia (Sprague-Dawley rats): completely blocked |
| COc1ccc2c(c1)CC[C@@H]1[C@@H]2CC[C@]2(C)[C@@H](NCCCCCCN3C(=O)CCC3=O)CC[C@@H]12 [U73343] | 15.3±1.9% | 23.7±3.6 | 2.8%±1.9% | 30.9%±1.9% | – |
| CNC[C@H](O)c1ccc(O)c(O)c1 [epinephrine] | – | – | – | – | reduction of paw-withdrawal threshold (Sprague-Dawley rats): 37.7±1.9% |
| C=C[C@@]1(C)CC(=O)[C@]2(O)[C@@]3(C)[C@@H](O)CCC(C)(C)[C@@H]3[C@H](O)[C@H](OC(C)=O)[C@@]2(C)O1 [forskolin] | – | – | – | – | PKCε translocating cells [1, 3]: 22.3±4.2% |
| CC(C)NC[C@H](O)c1ccc(O)c(O)c1 [isoproterenol, (−)-isoproterenol] | – | – | – | – | PKCε translocating cells [1, 3]: 21.3%±2.8% and 19.0±3.0%; time of maximal PKCε translocation ([1]; activator alone, time course): about 30 s |
| cholera toxin | – | – | – | – | PKCε translocating cells [1]: 15.2±3.0% and 24.0±1.9%; time of maximal PKCε translocation [1]: 90 s |
